From US4861798A, “Lipoxygenase inhibitory compounds” (Bristol-Myers Company, priority 1987, dated 1989)
Like-named read-outs stand apart in the source and are kept apart here.

Legend:
Format in all cases: cell-based
[1] = molecular target: T1, 5-lipoxygenase (Human Leukocyte/PMNL 5-LPO) (Homo sapiens, UniProt P09917); test: Inhibition of 5-lipoxygenase (5-HETE formation) in human neutrophil/platelet system
T1 construct: Human neutrophils and platelets were obtained from the blood of normal volunteers; endogenous in cells; host or cells: human blood leukocytes (neutrophils) of normal volunteers, with 0.1 to 0.5 platelets per leukocyte
T1 sequence (P09917 1-674): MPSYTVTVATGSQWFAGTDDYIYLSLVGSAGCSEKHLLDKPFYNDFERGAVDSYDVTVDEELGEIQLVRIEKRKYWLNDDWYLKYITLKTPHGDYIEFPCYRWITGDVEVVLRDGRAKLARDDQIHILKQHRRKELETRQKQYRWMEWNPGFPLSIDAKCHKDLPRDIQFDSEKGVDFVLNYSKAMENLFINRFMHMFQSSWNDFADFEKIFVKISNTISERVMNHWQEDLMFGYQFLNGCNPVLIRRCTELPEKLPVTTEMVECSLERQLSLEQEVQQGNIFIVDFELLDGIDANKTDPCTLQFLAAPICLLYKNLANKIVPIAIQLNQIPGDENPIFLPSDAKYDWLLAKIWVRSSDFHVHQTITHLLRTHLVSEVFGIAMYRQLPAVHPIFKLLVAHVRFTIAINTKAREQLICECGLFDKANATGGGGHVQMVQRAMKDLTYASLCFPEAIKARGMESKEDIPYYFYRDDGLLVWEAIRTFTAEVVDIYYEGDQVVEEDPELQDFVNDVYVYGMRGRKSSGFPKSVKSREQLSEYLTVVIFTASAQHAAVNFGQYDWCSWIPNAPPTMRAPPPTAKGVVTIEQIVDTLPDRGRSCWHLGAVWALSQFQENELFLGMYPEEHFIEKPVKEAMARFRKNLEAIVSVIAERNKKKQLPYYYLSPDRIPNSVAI
Description: This test is a measure of the inhibition of the synthesis of lipoxygenase products generated by human neutrophils and platelets. The protocol is similar to that described in the article "Comparative Effects of Indomethacin, Acetylenic Acids, 15-HETE, NDGA and BW755C on the Metabolism of Arachidonic Acid in Human Leukocytes and Platelets", H. Solari, P. Braquet and P. Borgeat, Prost. Leuk. Med. 13, pp. 53-60, 1984.
Human neutrophils and platelets were obtained from the blood of normal volunteers. The blood was collected into tubes containing EDTA as an anticoagulant. The blood was centrifuged at 250×g for 15 minutes and the platelet rich plasma was removed. The cell fraction was mixed with an equal volume of 0.9% saline containing 10 mM dextrose and resuspended in Dulbecco's phosphate buffered saline (PBS) without Mg^++ and Ca^++ and was counted. The cell suspension was adjusted to give a leukocyte count of 2-3×10^7 cells/ml.
Test compounds were dissolved in ethanol and added to polypropylene tubes. To control tubes (drug-free) only ethanol was added. The ethanol was evaporated to dryness under a stream of argon and then 0.1 ml of the cell suspension (2-3×10^6 cells) was added. This mixture was pre-incubated for 5 minutes at 37° and then the reaction was initiated by addition of ^3 H-arachidonic acid, calcium ionophore (A23187), and calcium ion. The final concentration of each component was: arachidonic acid, 10 uM; A23187, […]; calcium ion, […]. After 5 minutes the incubations were stopped by addition of an equal volume of methanol. The tubes were spun at 11,000 g for 2 minutes to pellet the precipitated protein. The supernatant was analyzed by HPLC for 5-HETE. The formation of this product is indicative of 5-lipoxygenase activity. Test drugs were evaluated for their ability to inhibit 5-HETE formation. Percent inhibition of varying concentrations of test drugs was determined in duplicate by comparing the peak quantitation in the presence and absence (control) of drug. […] The IC50 values were calculated from log-dose response curves of pooled data from at least two experiments by linear regression analysis.
The activity was tested by the same method as in the previous example.
The enzyme inhibitory activity of these compounds was tested by the same method.

Human Platelet CO = molecular target: T2, Human Platelet CO (Homo sapiens, UniProt P23219); test: Inhibition of CO, human platelet; conditions: for IC50: 95% confidence interval given for some; for inhibition at 100 µM: read-out: % I Human Platelet CO; for inhibition at 100 µM / % I Human Platelet CO: @ 100 μM
T2 construct: Human neutrophils and platelets were obtained from the blood of normal volunteers; endogenous in cells; host or cells: human platelets from blood of normal volunteers
T2 sequence (P23219 24-599): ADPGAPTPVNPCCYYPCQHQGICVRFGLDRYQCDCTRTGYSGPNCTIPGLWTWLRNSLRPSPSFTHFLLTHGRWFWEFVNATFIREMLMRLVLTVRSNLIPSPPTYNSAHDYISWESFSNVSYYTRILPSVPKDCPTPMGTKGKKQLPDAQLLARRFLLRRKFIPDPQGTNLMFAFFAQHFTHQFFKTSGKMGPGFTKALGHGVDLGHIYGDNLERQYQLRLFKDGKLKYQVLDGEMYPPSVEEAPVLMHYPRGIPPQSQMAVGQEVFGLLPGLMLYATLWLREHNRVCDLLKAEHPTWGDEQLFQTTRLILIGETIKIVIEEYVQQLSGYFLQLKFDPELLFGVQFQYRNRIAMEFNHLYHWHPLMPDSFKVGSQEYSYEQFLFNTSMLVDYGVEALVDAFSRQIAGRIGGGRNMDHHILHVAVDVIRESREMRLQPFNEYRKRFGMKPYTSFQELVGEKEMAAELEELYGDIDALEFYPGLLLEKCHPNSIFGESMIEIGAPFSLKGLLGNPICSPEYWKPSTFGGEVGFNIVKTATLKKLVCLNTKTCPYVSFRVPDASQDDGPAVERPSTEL

Human Platelet 12-LPO = molecular target: T3, Human Platelet 12-LPO (Homo sapiens, UniProt P18054); test: Inhibition of 12-LPO, human platelet; conditions: for IC50: 95% confidence interval; for inhibition at 100 µM: read-out: % I Human Platelet 12-LPO
T3 construct: Human neutrophils and platelets were obtained from the blood of normal volunteers; endogenous in cells; host or cells: human platelets from blood of normal volunteers
T3 sequence (P18054 1-663): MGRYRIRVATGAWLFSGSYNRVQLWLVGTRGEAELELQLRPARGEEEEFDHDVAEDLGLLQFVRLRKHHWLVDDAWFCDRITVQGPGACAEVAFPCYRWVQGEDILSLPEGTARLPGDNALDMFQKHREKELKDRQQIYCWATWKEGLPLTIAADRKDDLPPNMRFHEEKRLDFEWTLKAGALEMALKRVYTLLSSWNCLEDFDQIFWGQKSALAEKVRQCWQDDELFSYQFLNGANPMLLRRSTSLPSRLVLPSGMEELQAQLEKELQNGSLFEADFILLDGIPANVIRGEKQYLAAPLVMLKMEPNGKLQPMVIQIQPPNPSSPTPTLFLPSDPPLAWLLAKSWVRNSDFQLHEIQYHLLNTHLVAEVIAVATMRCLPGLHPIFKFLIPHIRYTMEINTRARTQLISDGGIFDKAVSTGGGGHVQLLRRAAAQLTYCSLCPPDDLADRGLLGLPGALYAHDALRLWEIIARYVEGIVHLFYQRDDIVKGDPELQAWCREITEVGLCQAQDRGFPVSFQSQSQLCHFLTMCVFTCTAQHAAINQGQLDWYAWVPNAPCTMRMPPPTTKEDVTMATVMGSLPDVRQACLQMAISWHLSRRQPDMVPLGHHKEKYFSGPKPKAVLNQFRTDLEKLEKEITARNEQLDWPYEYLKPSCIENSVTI

[2] = PMNL, read-out: % I Human PMNL 5-LPO
[3] = Table I, R=H, phenylalkyl hydroxamic acids, read-out: IC50 5-LPO (Inhibition of Human Leukocyte 5-LPO)
[4] = FIG. 1 table, 95% confidence interval, read-out: IC50 Human PMNL 5-LPO
[5] = ring-substituted 9-phenylnonanohydroxamic acids, read-out: IC50 (5-lipoxygenase)

Compound | IC50 [1, 4] [µM] | IC50 (Human Platelet CO) [µM] | IC50 (Human Platelet 12-LPO) [µM] | further results
O=C(CCCc1ccccc1)NO [BMY30077] | – | – | – | inhibition at 100 µM [1, 2]: 11%; IC50 [1, 3]: > 100 µM
O=C(CCCCc1ccccc1)NO [BMY30083] | – | – | – | inhibition at 100 µM [1, 2]: 22%; IC50 [1, 3]: > 100 µM
O=C(CCCCCCCCCCCCCCc1ccccc1)NO [BMY30152] | – | – | – | inhibition at 50 µM ([1]; PMNL, @ 50 μM, read-out: % I Human PMNL 5-LPO): 7.5%; IC50 [1, 3]: > 100 µM
CN(O)C(=O)CCCCCCCc1ccccc1 [BMY30208, N-methyl-8-phenyloctanohydroxamic acid] | 0.1 | 2.9 | 3.6 | –
CC(C)N(O)C(=O)CCCCCCCc1ccccc1 [BMY30214] | 0.16 | 4.2 | 4.5 | –
CN(O)C(=O)CCCCCCCCCc1ccccc1 [BMY30217] | 0.09 | 4.6 | 5.5 | –
CC(C)N(O)C(=O)CCCCCCCCCc1ccccc1 [BMY30218] | 0.14 | 7.6 | 26.7 | –
CC(C)N(O)C(=O)CCCCCCc1ccccc1 [BMY30222] | 0.07 | 30.9 | 12.5 | –
CN(O)C(=O)CCCCCCCCc1ccccc1 [BMY30223] | 0.17 | 2.1 | 2.5 | –
CC(C)N(O)C(=O)CCCCCCCCc1ccccc1 [BMY30224] | 0.18 | 18.4 | 13.9 | –
CC(C)N(O)C(=O)CCCCc1ccccc1 [BMY30226] | 0.9 | – | – | inhibition at 100 µM (Human Platelet CO): 25%; inhibition at 100 µM (Human Platelet 12-LPO): 59%
CC(C)N(O)C(=O)CCCc1ccccc1 [BMY30227] | 0.7 | – | – | inhibition at 100 µM (Human Platelet CO): 7%; inhibition at 100 µM (Human Platelet 12-LPO): 31%
CN(O)C(=O)CCCCCCCCCCCCCCc1ccccc1 [BMY30228] | 25.3 | – | – | % I Human Platelet CO (Human Platelet CO): inactive; inhibition at 100 µM (Human Platelet 12-LPO): 17%
CC(C)N(O)C(=O)CCCCCCCCCCCCCCc1ccccc1 [BMY30229] | 80 | – | – | % I Human Platelet CO (Human Platelet CO): inactive; inhibition at 100 µM (Human Platelet 12-LPO): 10%
COc1ccc(CCCCCCCCC(=O)NO)cc1 [BMY 30173, 9(4-Methoxyphenyl)nonanohydroxamic acid] | – | – | – | IC50 [1, 5]: 2.4 µM
O=C(CCCCCCCCc1ccc(Cl)cc1)NO [BMY 30174, 9(4-chlorophenyl)nonanohydroxamic acid] | – | – | – | IC50 [1, 5]: 6.1 µM
